Source: US20260137661A1, “PPAR-ALPHA/GAMMA AGONIST FOR USE IN THE TREATMENT OF LIVER FAILURE” (Genfit, priority 2022, published 2026)

Key:
HepG2 cell line = experiment: Staurosporine-induced apoptosis in HepG2 cells: caspase 3/7 activity; format: cell-based; details: Homo sapiens, 16 h pre-treatment, then 10 μM staurosporin for 4 h, p<0.001
Description: In order to evaluate the effect of the compounds to protect hepatocytes from cell death, apoptosis was induced by staurosporine in the human hepatoblastoma-derived HepG2 cell line (ECACC, #85011430, Sigma-Aldrich). HepG2 was cultured in high-glucose DMEM medium (#41965, Gibco, France) supplemented with 10% of fetal bovine serum (FBS, #10270, Gibco), 1% penicillin/streptomycin (#15140, Gibco), 1% sodium pyruvate (#11360, Gibco) and 1% MEM non-essential amino acids (#11140, Gibco) in a 5% CO2 incubator at 37° C.
To evaluate caspase 3/7 activity, which is a surrogate marker of apoptosis, 1.5×10^4 cells were plated in a 384-well plate (#781080, Greiner, France). After cell adherence (8 hours), cells were serum starved for 16h in the presence of compounds (dose ranging from 0.3 to 10 µM) or vehicle. Thereafter, cells were treated with 10 μM staurosporin (#569397, Sigma-Aldrich, Germany) supplemented with compound for additional 4 hours before cell lysis and caspase activity measurement.
Caspase 3/7 activity was measured using Caspase Glow™ 3/7 assay (#G8093, Promega, USA). Luminescence was measured using a Spark microplate reader (#30086376, Tecan, USA). The amount of luminescence (RLU) directly correlates with caspase 3/7 activity.

C57BL/6J male mice = experiment: LPS/GalN mouse model of acute liver failure: serum hepatic markers and cytokines; format: in vivo; details: 1 mg/kg/day oral gavage for 3 days before LPS/GalN injection, serum 6 h after LPS/GalN, vs vehicle
Excerpt: Low doses of LPS in combination with the hepatotoxic agent D-Galactososamine (GalN) promote specific liver injury in mice and induce the inflammatory cytokines production, thus recapitulating the clinical picture of acute liver injury in human (Pourcet et al., Gastroenterology, 2018, 154 (5), p 1449-1464.e20). Hepatic injury induced by LPS/GalN is therefore a widely used mouse model to evaluate the effect of pharmacological agents on acute liver failure.
To evaluate the efficacy of the compounds on liver injury and function and the inflammatory response occurring upon acute liver failure, C57BL/6J male mice (8 weeks old, Janvier Labs) received an intraperitoneal injection of 0.025 mg/kg LPS (Escherichia coli 0111: B4, #L2630, Sigma-Aldrich) supplemented with 700 mg/kg D-Galactosamine (GalN, G0500, Sigma-Aldrich).
Cpd.1 (1 mg/kg/day) or vehicle (carboxymethylcellulose 1%, 0.1% Tween 80) was administered by oral gavage during the three days before LPS/GalN injection (n=10-12 per group). Mice were sacrificed 6h after LPS/GalN injection. Blood samples were obtained from retro-orbital sinus puncture on animals slightly asleep with isoflurane (Isoflurin 1000 mg/g, GTIN 03760087152678, Axience) just before sacrifice. A group of mice (n=4) received an intraperitoneal injection to be used as healthy controls.
Serum aspartate aminotransferase (ASAT) was measured using Randox kit for Daytona Plus automate (AS 8306) according to the manufacturer recommendation. ASAT enzymatically transforms alpha-oxoglutarate and L-aspartate into L-glutamate and oxaloacetate. In the presence of NADH, the generated oxaloacetate is converted by malate dehydrogenase to form L-malate and NAD+. The kinetics of the reaction is studied and allows the concentration of ASAT to be calculated.
Serum alanine aminotransferase (ALAT) was measured using Randox kit for Daytona Plus automate (AL 8304) according to the manufacturer recommendation. ALAT enzymatically transforms alpha-oxoglutarate and L-alanine into L-glutamate and pyruvate. In the presence of NADH, the generated pyruvate is converted by lactate dehydrogenase to form L-lactate and NAD+. The kinetics of the reaction is studied and allows the concentration of ALAT to be calculated.
Serum total bilirubin was measured using Randox kit for Daytona Plus automate (BR 8377) according to the manufacturer recommendation. The bilirubin is oxidized by vanadate at about pH 2.9 to produce biliverdin. In the presence of detergent and vanadate, both conjugate and unconjugated bilirubin are oxidized. This oxidation reaction causes a decrease in the optical density of the yellow color, which is specific to bilirubin. The decrease in optical density at 450/546 nm is proportional to the total bilirubin concentration in the sample.
Serum total bile acids were measured using Randox kit for Daytona Plus automate (BI 3863) according to the manufacturer recommendation. In the presence of Thio-NAD, the enzyme 3-α-hydroxysteroid dehydrogenase (3-α-HSD) converts bile acids to 3-keto steroids and Thio-NADH. In the presence of excess NADH, the enzyme cycling occurs efficiently and the rate of formation of Thio-NADH is determined by measuring specific change of absorbance at 405 nm.
The concentration of serum interleukin-6 (IL6) was determined using a multiplex sandwich ELISA system (Mouse Magnetic Luminex #LSXAMSM-06, Biotechne) according to the manufacturer instructions. […] After washing, IL6 was detected through the addition of biotinylated antibodies. […]

Row | SMILES | inhibition at 3 µM (HepG2 cell line; 3 μM compound) | inhibition at 10 µM (HepG2 cell line; 10 μM compound) | reduction of total bilirubin (C57BL/6J male mice; p=0.003) | reduction of total bile acids (C57BL/6J male mice; p=0.004) | change of pro-inflammatory cytokine IL6 (serum) (C57BL/6J male mice; p=0.01) | decrease of serum ASAT (C57BL/6J male mice; p=0.01) | decrease of serum ALAT (C57BL/6J male mice; p=0.03)
1 | COc1ccc(OC(=O)N(CC(=O)O)Cc2ccc(OCCc3nc(-c4ccccc4)oc3C)cc2)cc1 [Cpd.2, N-[(4-methoxyphenoxy)carbonyl]-N-[[4-[2-(5-methyl-2-phenyl-4-oxazolyl)ethoxy]phenyl]methyl]glycine] | 24% |  |  |  |  |  | 
2 | CCO[C@@H](Cc1ccc(OCCc2ccc(OS(C)(=O)=O)cc2)cc1)C(=O)O [Cpd. 1, (S)-2-ethoxy-3-(4-(4-((methylsulfonyl)oxy)phenethoxy)phenyl) propanoic acid] |  | 12% | 73% | 79% | −78% | 66% | 57%
